# Patent publication US12428397B2, “Factor XI activation inhibitors” (Merck Sharp & Dohme LLC, priority 2020, dated 2025)
# Biological target: T1, Human coagulation factor (F)XI (Homo sapiens, UniProt P03951)
# T1 construct: purchased Haematologic Technologies Inc. (FXI); Enzyme Research Laboratories (FXIIa) HCXI-150 (FXI); HFXIIa (FXIIa)
# Experiment: Inhibition of FXIIa mediated activation of FXI (activation of human Factor XI to XIa by human Factor α-XIIa)
# Format: biochemical
# Settings: human FXI pre-incubated with compound 30 min at 22° C., activation by human FXIIa 60 min, z-GPR-AFC substrate fluorescence read-out, 4 parameter logistic fit; read-out: Inhibition of FXIIa meditated activation of FXI
# Procedure: Inhibition of FXIIa Mediated Activation of FXI
# Activation of Human Factor XI to XIa by Human Factor α-XIIa
# The assay was performed in 50 mM HEPES, 150 mM NaCl, 5 mM CaCl2, 0.1% PEG-8000, pH 7.4 buffer in black, flat-bottom, polystyrene microplates (Corning, Cat #3573). Serial dilutions (10-point, 3.333-fold) of the test compounds delivered as 10 mM DMSO stocks were prepared in the Labcyte Echo-qualified PP 384 well microplates (Labcyte, Cat #P-05525). Human coagulation factor (F)XI (Haematologic Technologies Inc., Cat #HCXI-150, concentration 46 nM, 19.5 uL) was pre-incubated with 0.5 uL of the test compounds for 30 min at 22° C. The activation was initiated by addition of 10 uL of human coagulation factor (F)XIIa (Enzyme Research Laboratories, Cat #HFXIIa, concentration 30 nM) and the reaction proceeded for 60 min at 22° C., after which it was quenched by addition of a selective inhibitor of FXIIa (Compound 54 in WO2018093695) concentration 600 uM in DMSO, 1 uL. 10 min after the quench, 29 uL of z-GPR-AFC substrate (Sigma, Cat #C0980-10MG, concentration 200 uM) was added into each well and the detection reaction proceeded for 60 min at 22° C. Fluorescence at 405/510 nm was measured in end-point mode using an Envision plate-reader (Perkin Elmer). IDBS Activity Base XE (ABase) analysis using 4 parameter logistic fit was performed to determine Minimum, Maximum, EC50, and Slope Factor for each compound.
# T1 sequence (P03951 19-625): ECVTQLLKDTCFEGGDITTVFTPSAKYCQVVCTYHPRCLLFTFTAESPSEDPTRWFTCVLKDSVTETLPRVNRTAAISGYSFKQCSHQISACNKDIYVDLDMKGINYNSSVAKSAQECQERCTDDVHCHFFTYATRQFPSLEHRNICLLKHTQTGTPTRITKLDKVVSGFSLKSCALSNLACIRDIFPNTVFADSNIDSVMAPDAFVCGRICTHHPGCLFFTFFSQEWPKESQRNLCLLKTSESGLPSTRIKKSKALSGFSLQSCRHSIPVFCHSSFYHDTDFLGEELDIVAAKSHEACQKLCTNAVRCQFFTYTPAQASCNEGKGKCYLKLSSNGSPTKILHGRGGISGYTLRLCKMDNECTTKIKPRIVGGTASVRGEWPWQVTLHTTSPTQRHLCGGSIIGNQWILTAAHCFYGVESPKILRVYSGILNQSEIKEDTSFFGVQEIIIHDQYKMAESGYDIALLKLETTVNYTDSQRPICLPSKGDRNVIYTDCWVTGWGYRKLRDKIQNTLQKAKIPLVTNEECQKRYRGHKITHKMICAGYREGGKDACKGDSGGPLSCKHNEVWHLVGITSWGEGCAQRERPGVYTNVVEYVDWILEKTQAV
row,EC50 [nM],Structure (SMILES)
1,45.7,"N#Cc1ccc(COc2cc3c(C(=O)N4CCCCC4)cc(C(=O)N4CCC(n5cccn5)CC4)cc3cn2)cn1 [Example 9, 5-(((7-(4-(1H-pyrazol-1-yl)piperidine-l-carbonyl)-5-(piperidine-1-carbonyl)isoquinolin-3-yl)oxy)methyl)picolinonitrile]"
2,33.2,"O=C(c1cc(C(=O)N2CCCCC2)c2cc(OCc3ccc(C(F)(F)F)nc3)ncc2c1)N1CCC(n2cccn2)CC1 [Example 10, (4-(1H-pyrazol-1-yl)piperidin-1-yl)(5-(piperidine-1-carbonyl)-3-((6-(trifluoromethyl)pyridin-3-yl)methoxy)isoquinolin-7-yl)methanone]"
3,41,"O=C(c1cc(C(=O)N2CCCCC2)c2cc(OCc3ncc(Cl)cc3Cl)ncc2c1)N1CCC(n2ccnn2)CC1 [Example 5, (4-(1H-1,2,3-triazol-1-yl)piperidin-1-yl)(3-((3,5-dichloropyridin-2-yl)methoxy)-5-(piperidine-1-carbonyl)isoquinolin-7-yl)methanone]"
4,32.7,"O=C(c1cc(C(=O)N2CCCCC2)c2cc(OCc3ncc(C(F)(F)F)cc3Cl)ncc2c1)N1CCC(n2ccnn2)CC1 [Example 3, (4-(1H-1,2,3-triazol-1-yl)piperidin-1-yl)(3-((3-chloro-5-(trifluoromethyl)pyridin-2-yl)methoxy)-5-(piperidine-1-carbonyl)isoquinolin-7-yl)methanone]"
5,23.6,"N#Cc1cccc(COc2cc3c(C(=O)N4CCCCC4)cc(C(=O)N4CCC(C#N)(c5ccccc5)CC4)cc3cn2)c1 [Example 7, 1-(3-((3-cyanobenzyl)oxy)-5-(piperidine-1-carbonyl)isoquinoline-7-carbonyl)-4-phenylpiperidine-4-carbonitrile]"
6,8.8,"O=C(c1cc(C(=O)N2CCCCC2)c2cc(OCc3ncc(Cl)cc3Cl)ncc2c1)N1CCC(n2cccn2)CC1 [Example 14, (4-(1H-pyrazol-1-yl)piperidin-1-yl)(3-((3,5-dichloropyridin-2-yl)methoxy)-5-(piperidine-1-carbonyl)isoquinolin-7-yl)methanone]"
7,49.5,"O=C(c1cc(C(=O)N2CCCCC2)c2cc(OCc3ccc(Cl)cc3Cl)ncc2c1)N1CCC(n2cccn2)CC1 [Example 13, (4-(1H-pyrazol-1-yl)piperidin-1-yl)(3-((2,4-dichlorobenzyl)oxy)-5-(piperidine-1-carbonyl)isoquinolin-7-yl)methanone]"
8,19.9,"O=C(c1cc(C(=O)N2CCCCC2)c2cc(OCc3nc4ccccc4s3)ncc2c1)N1CCC(n2cccn2)CC1 [Example 15, (4-(1H-pyrazol-1-yl)piperidin-1-yl)(3-(benzo[d]thiazol-2-ylmethoxy)-5-(piperidine-1-carbonyl)isoquinolin-7-yl)methanone]"
9,13.4,"O=C(c1cc(C(=O)N2CCCCC2)c2cc(OCc3ncc(C(F)(F)F)cc3Cl)ncc2c1)N1CCC(n2cccn2)CC1 [Example 8, (4-(1H-pyrazol-1-yl)piperidin-1-yl)(3-((3-chloro-5-(trifluoromethyl)pyridin-2-yl)methoxy)-5-(piperidine-1-carbonyl)isoquinolin-7-yl)methanone]"
10,37.9,"N#CC1(c2ccccc2)CCN(C(=O)c2cc(C(=O)N3CCCCC3)c3cc(OCc4nc5ccccc5s4)ncc3c2)CC1 [Example 1, 1-(3-(benzo[d]thiazol-2-ylmethoxy)-5-(piperidine-1-carbonyl)isoquinoline-7-carbonyl)-4-phenylpiperidine-4-carbonitrile]"
11,24.3,"N#CC1(c2ccccn2)CCN(C(=O)c2cc(C(=O)N3CCCCC3)c3cc(OCc4ncc(C(F)(F)F)cc4Cl)ncc3c2)CC1 [Example 12, 1-(3-((3-chloro-5-(trifluoromethyl)pyridin-2-yl)methoxy)-5-(piperidine-1-carbonyl)isoquinoline-7-carbonyl)-4-(pyridin-2-yl)piperidine-4-carbonitrile]"
12,26.8,"N#CC1(c2ccccc2)CCN(C(=O)c2cc(C(=O)N3CCCCC3)c3cc(OCc4ncc(C(F)(F)F)cc4Cl)ncc3c2)CC1 [Example 2, 1-(3-((3-chloro-5-(trifluoromethyl)pyridin-2-yl)methoxy)-5-(piperidine-1-carbonyl)isoquinoline-7-carbonyl)-4-phenylpiperidine-4-carbonitrile]"
13,8.5,"N#CC1(c2ccccc2)CCN(C(=O)c2cc(C(=O)N3CCCCC3)c3cc(OCCCc4cccnc4)ncc3c2)CC1 [Example 4, 4-phenyl-1-(5-(piperidine-1-carbonyl)-3-(3-(pyridin-3-yl)propoxy)isoquinoline-7-carbonyl)piperidine-4-carbonitrile]"
14,4.3,"N#CC1(c2ccccn2)CCN(C(=O)c2cc(C(=O)N3CCCCC3)c3cc(OCc4ncc(Cl)cc4Cl)ncc3c2)CC1 [Example 11, 1-(3-((3,5-dichloropyridin-2-yl)methoxy)-5-(piperidine-1-carbonyl)isoquinoline-7-carbonyl)-4-(pyridin-2-yl)piperidine-4-carbonitrile]"
15,19.4,"N#CC1(c2ccccc2)CCN(C(=O)c2cc(C(=O)N3CCCCC3)c3cc(OCc4ncc(Cl)cc4Cl)ncc3c2)CC1 [Example 6, 1-(3-((3,5-dichloropyridin-2-yl)methoxy)-5-(piperidine-1-carbonyl)isoquinoline-7-carbonyl)-4-phenylpiperidine-4-carbonitrile]"
